{
  "source": "paper PMC7010297",
  "about": "“How the initiating ribosome copes with ppGpp to translate mRNAs” (PLoS Biology, 2020)",
  "key": {"[1]": {"biological_target": "T1, 70S pre-IC (50S joining to 30S IC) (Escherichia coli, UniProt P0A705)", "T1 construct": "6xHis (N); made in house", "T1 sequence (P0A705 whole entry, looked up)": "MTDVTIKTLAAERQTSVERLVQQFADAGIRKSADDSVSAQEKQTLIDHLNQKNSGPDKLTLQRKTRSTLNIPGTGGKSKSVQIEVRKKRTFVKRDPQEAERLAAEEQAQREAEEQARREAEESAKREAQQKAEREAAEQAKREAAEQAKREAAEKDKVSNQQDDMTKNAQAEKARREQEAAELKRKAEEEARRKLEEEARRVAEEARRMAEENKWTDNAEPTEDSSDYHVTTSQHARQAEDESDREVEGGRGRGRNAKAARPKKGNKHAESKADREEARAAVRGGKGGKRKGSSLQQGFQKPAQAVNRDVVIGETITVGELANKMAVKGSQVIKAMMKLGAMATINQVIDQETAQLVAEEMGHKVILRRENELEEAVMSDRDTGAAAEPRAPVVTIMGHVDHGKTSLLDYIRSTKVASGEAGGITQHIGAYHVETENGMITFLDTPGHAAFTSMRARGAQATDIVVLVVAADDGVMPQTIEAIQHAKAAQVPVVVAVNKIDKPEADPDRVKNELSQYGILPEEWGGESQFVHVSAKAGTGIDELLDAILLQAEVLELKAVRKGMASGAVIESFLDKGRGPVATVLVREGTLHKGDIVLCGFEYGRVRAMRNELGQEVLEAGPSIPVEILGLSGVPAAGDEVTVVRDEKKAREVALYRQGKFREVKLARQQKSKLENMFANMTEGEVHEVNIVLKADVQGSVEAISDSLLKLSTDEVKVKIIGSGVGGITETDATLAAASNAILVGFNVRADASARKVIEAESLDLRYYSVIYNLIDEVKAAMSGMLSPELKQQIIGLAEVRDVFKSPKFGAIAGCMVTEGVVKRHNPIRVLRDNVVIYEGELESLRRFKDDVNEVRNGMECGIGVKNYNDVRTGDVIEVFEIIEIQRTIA", "assay": "70S pre-IC formation by light scattering, stopped-flow", "assay_type": "biochemical", "set-up": "K1, best-fit value / k2, best-fit value: unit not given here", "conditions": "for A0, best-fit value / K1, best-fit value / k2, best-fit value: fit Y=A0+A1*exp(-K1*x)+k2*x; for kfast (s-1) Avg: light scattering", "description": "Continuous lines indicate nonlinear regression fittings with a quadratic equation. Three measurements were performed; mean and standard deviation are plotted (S1 Data). (B) as (A) to measure the concentration dependence for each tested guanosine nucleotide at constant IF2 (1 μM). […] Continuous lines show best fits using exponential functions. (D) Formation of 70S IC as measured by Bpy-tRNAi accommodation in the P site of the ribosome; 0.1 μM 30S ICs were formed with Bpy-tRNAi and rapidly mixed with 0.3 μM 50S subunits on a stopped-flow apparatus as described in [14]. Colors are as in (C). Continuous lines show best fits using an exponential function for a single reaction step. Each stopped-flow trace results from the mean of 5 to 7 replicates.\n(A) Scheme of 70S IC formation. […] Time traces were analyzed by nonlinear regression with exponential terms. […] Formation of 70S IC, as measured by Bpy-tRNAi accommodation in the absence (F) or presence of 200 μM ppGpp (G). Time traces were analyzed by nonlinear regression with one exponential term. […] Continuous lines show best fits using an exponential function for a single reaction step. All time traces are mean values of 5 to 10 replicates. Bar graphs show mean and standard errors (error bars) derived from the nonlinear regression fitting (D,E,H,I) (S1 Data).\nTo measure 70S pre-IC formation, a SX-20 stopped-flow instrument (Applied Photophysics, Leatherhead, UK) was set up for LS recording with an excitation wavelength of 430 nm. Scattered light was measured at an angle of 90° without a filter. Pseudo first-order conditions were approximated by using ≥3-fold excess of 50S subunits over 30S ICs; 0.2 μM 30S ICs were rapidly mixed in the instrument with 0.6 μM 50S at 25 °C. Bpy-tRNAi accommodation was measured essentially as described elsewhere. Briefly, 0.2 μM 30S ICs were formed using Bpy-tRNAi and rapidly mixed with 0.6 μM 50S at 25 °C. Fluorescence was excited at 470 nm and measured after a 495-nm longpass filter. Individual traces (6–11 traces) were averaged, and the resulting kinetic curve was approximated by single (F = A0 + A1*exp (-kapp1*t)) or double (F = A0 + A1*exp (-kapp1*t) + A2*exp (-kapp2*t)) exponential fit using Graphpad Prism 6.0 software (GraphPad, San Diego, California)."}, "30S-bound IF2 (30S IC)": {"biological_target": "T2, 30S-bound IF2 (30S IC) (Escherichia coli, UniProt P0A705)", "T2 construct": "6xHis (N); made in house", "T2 sequence (P0A705 whole entry, looked up)": "as above", "assay": "ppGpp (or GDP) to GTP competitive assay for 30S IC formation by MST", "assay_type": "binding", "description": "MST was calculated from the respective fluorescence time dependencies (S3 Fig). […] Symbols as in (B). […] Continuous lines indicate nonlinear regression fittings with quadratic (B and E) or same-site competition (G) functions. Three measurements were performed; mean and standard deviations are plotted (S1 Data).\n[…] Symbols are as indicated, 3 measurements were performed, and mean and standard deviation are plotted (S1 Data). Continuous lines show nonlinear regression fittings with a same-site inhibition model. […] (PDF) Click here for additional data file."}},
  "note": "Where “and” joins values, the source holds several entries; their conditions need not be identical. Equal entries are not always repeated.",
  "data": [
    {"compound": "Nc1nc2c(ncn2[C@@H]2O[C@H](COP(=O)(O)OP(=O)(O)O)[C@@H](OP(=O)(O)OP(=O)(O)O)[C@H]2O)c(=O)[nH]1", "note": "[ppGpp]", "values": [
      {"measurement": "efficiency (amplitude) of 70S pre-IC formation", "setting": "[1]; 0.2 mM nucleotide, no GTP", "value": "reduced efficiencies"},
      {"measurement": "rapid 70S pre-IC formation in the absence of GTP", "setting": "[1]; 0.2 mM nucleotide, noncompetitive (S6 Fig)", "value": "negligible"},
      {"measurement": "A0, best-fit value", "setting": "[1]; mInfA", "value": 1.01},
      {"measurement": "K1, best-fit value", "setting": "[1]; mInfA", "value": "1.203 and 1.20"},
      {"measurement": "k2, best-fit value", "setting": "[1]; mInfA", "value": "0.0007 and 0.000671"},
      {"measurement": "A0, best-fit value", "setting": "[1]; mMF1", "value": 1.01},
      {"measurement": "K1, best-fit value", "setting": "[1]; mMF1", "value": "2.759 and 2.76"},
      {"measurement": "k2, best-fit value", "setting": "[1]; mMF1", "value": "0.0007 and 0.000692"},
      {"measurement": "LS amplitude (a.u.) Avg", "setting": "[1]; mRNA mInfA", "value": 0.011, "unit": "a.u."},
      {"measurement": "kfast (s-1) Avg", "setting": "[1]; mRNA mInfA", "value": 1.20, "unit": "s⁻¹"},
      {"measurement": "LS amplitude (a.u.) Avg", "setting": "[1]; mRNA mMF1", "value": 0.012, "unit": "a.u."},
      {"measurement": "kfast (s-1) Avg", "setting": "[1]; mRNA mMF1", "value": 2.76, "unit": "s⁻¹"},
      {"measurement": "LS amplitude (a.u.) Avg", "setting": "[1]; mRNA mTufA", "value": 0.035, "unit": "a.u."},
      {"measurement": "kfast (s-1) Avg", "setting": "[1]; mRNA mTufA", "value": 3.76, "unit": "s⁻¹"},
      {"measurement": "A0, best-fit value", "setting": "[1]; mTufA", "value": 1.03},
      {"measurement": "K1, best-fit value", "setting": "[1]; mTufA", "value": "3.763 and 3.76"},
      {"measurement": "k2, best-fit value", "setting": "[1]; mTufA", "value": "0.0010 and 0.00104"},
      {"measurement": "MST Average", "setting": "30S-bound IF2 (30S IC); mInfA, Log [ppGpp] 0.29", "value": 1046.47, "unit": "a.u."},
      {"measurement": "MST Average", "setting": "30S-bound IF2 (30S IC); mInfA, Log [ppGpp] 0.59", "value": 1038.08, "unit": "a.u."},
      {"measurement": "MST Average", "setting": "30S-bound IF2 (30S IC); mInfA, Log [ppGpp] 0.89", "value": 1028.93, "unit": "a.u."},
      {"measurement": "MST Average", "setting": "30S-bound IF2 (30S IC); mInfA, Log [ppGpp] 1.19", "value": 1018.24, "unit": "a.u."},
      {"measurement": "MST Replicates (a.u.)", "setting": "30S-bound IF2 (30S IC); mInfA, Log [ppGpp] 1.19", "value": "1017.94 a.u. and 1018.60 a.u. and 1018.17 a.u."},
      {"measurement": "MST Average", "setting": "30S-bound IF2 (30S IC); mInfA, Log [ppGpp] 1.49", "value": 1003.04, "unit": "a.u."},
      {"measurement": "MST Replicates (a.u.)", "setting": "30S-bound IF2 (30S IC); mInfA, Log [ppGpp] 1.49", "value": "1002.79 a.u. and 1003.03 a.u. and 1003.30 a.u."},
      {"measurement": "MST Average", "setting": "30S-bound IF2 (30S IC); mInfA, Log [ppGpp] 1.80", "value": 986.30, "unit": "a.u."},
      {"measurement": "MST Replicates (a.u.)", "setting": "30S-bound IF2 (30S IC); mInfA, Log [ppGpp] 1.80", "value": "985.49 a.u. and 986.54 a.u. and 986.87 a.u."},
      {"measurement": "MST Average", "setting": "30S-bound IF2 (30S IC); mInfA, Log [ppGpp] 2.10", "value": 973.31, "unit": "a.u."},
      {"measurement": "MST Replicates (a.u.)", "setting": "30S-bound IF2 (30S IC); mInfA, Log [ppGpp] 2.10", "value": "972.70 a.u. and 973.61 a.u. and 973.64 a.u."},
      {"measurement": "MST Average", "setting": "30S-bound IF2 (30S IC); mInfA, Log [ppGpp] 2.40", "value": 964.30, "unit": "a.u."},
      {"measurement": "MST Replicates (a.u.)", "setting": "30S-bound IF2 (30S IC); mInfA, Log [ppGpp] 2.40", "value": 963.79, "unit": "a.u."},
      {"measurement": "MST Average", "setting": "30S-bound IF2 (30S IC); mInfA, Log [ppGpp] 2.70", "value": 958.86, "unit": "a.u."},
      {"measurement": "MST Average", "setting": "30S-bound IF2 (30S IC); mInfA, Log [ppGpp] -0.01", "value": 1048.67, "unit": "a.u."},
      {"measurement": "MST Average", "setting": "30S-bound IF2 (30S IC); mInfA, Log [ppGpp] -0.31", "value": 1053.58, "unit": "a.u."},
      {"measurement": "MST Average", "setting": "30S-bound IF2 (30S IC); mInfA, Log [ppGpp] -0.61", "value": 1049.04, "unit": "a.u."},
      {"measurement": "MST Average", "setting": "30S-bound IF2 (30S IC); mMF1, Log [ppGpp] 0.29", "value": 1016.08, "unit": "a.u."},
      {"measurement": "MST Average", "setting": "30S-bound IF2 (30S IC); mMF1, Log [ppGpp] 0.59", "value": 1007.03, "unit": "a.u."},
      {"measurement": "MST Average", "setting": "30S-bound IF2 (30S IC); mMF1, Log [ppGpp] 0.89", "value": 999.03, "unit": "a.u."},
      {"measurement": "MST Average", "setting": "30S-bound IF2 (30S IC); mMF1, Log [ppGpp] 1.19", "value": 986.05, "unit": "a.u."},
      {"measurement": "MST Replicates (a.u.)", "setting": "30S-bound IF2 (30S IC); mMF1, Log [ppGpp] 1.19", "value": "985.88 a.u. and 986.00 a.u. and 986.26 a.u."},
      {"measurement": "MST Average", "setting": "30S-bound IF2 (30S IC); mMF1, Log [ppGpp] 1.49", "value": 972.28, "unit": "a.u."},
      {"measurement": "MST Replicates (a.u.)", "setting": "30S-bound IF2 (30S IC); mMF1, Log [ppGpp] 1.49", "value": "971.54 a.u. and 972.59 a.u. and 972.70 a.u."},
      {"measurement": "MST Average", "setting": "30S-bound IF2 (30S IC); mMF1, Log [ppGpp] 1.80", "value": 959.11, "unit": "a.u."},
      {"measurement": "MST Replicates (a.u.)", "setting": "30S-bound IF2 (30S IC); mMF1, Log [ppGpp] 1.80", "value": "958.37 a.u. and 959.24 a.u. and 959.71 a.u."},
      {"measurement": "MST Average", "setting": "30S-bound IF2 (30S IC); mMF1, Log [ppGpp] 2.10", "value": 947.40, "unit": "a.u."},
      {"measurement": "MST Replicates (a.u.)", "setting": "30S-bound IF2 (30S IC); mMF1, Log [ppGpp] 2.10", "value": "946.23 a.u. and 947.67 a.u. and 948.30 a.u."},
      {"measurement": "MST Average", "setting": "30S-bound IF2 (30S IC); mMF1, Log [ppGpp] 2.40", "value": 939.79, "unit": "a.u."},
      {"measurement": "MST Replicates (a.u.)", "setting": "30S-bound IF2 (30S IC); mMF1, Log [ppGpp] 2.40", "value": 938.92, "unit": "a.u."},
      {"measurement": "MST Average", "setting": "30S-bound IF2 (30S IC); mMF1, Log [ppGpp] 2.70", "value": 942.02, "unit": "a.u."}
    ]}
  ]
}
